Measured values published in US20200055848A1, “FURANONE DERIVATES AND METHODS OF USE THEREOF” (CARNA BIOSCIENCES, INC., priority 2016, published 2020).
Read-outs that look alike come from different tables or passages of the source.

Tests used:
[1] = In vitro metabolic stability, mouse liver microsomes; assay type: in vitro ADME
Experimental: (§1) NADPH regeneration system (13 mM NADP, 33 mM Glucose-6-phospate, 33 mM MgCl2, and 4 U/mL of Glucose-6-phosphate dehydrogenase) and liver microsomes (1 mg/mL of HLM (BD Gentest, lot 18888) or MLM (BD Gentest, lot 31197)) in 0.1 M phosphate buffer (pH 7.4) were pre-incubated separately at 37° C. for 20 min before mixing with 1:4 ratio. 50 μL of the mixed solution was added to 50 μL of the test compound (2 μM) to initiate the reaction at 37° C. (final conc. 1 μM test compound, 0.4 mg/mL liver microsomes, and 1.3 mM NADPH). After 30 min, the reactions were stopped by adding 300 μL of cold acetonitrile. For 0 min samples, ice-cold acetonitrile (with system suitability standard) was treated before mixing the test compound and microsomes. The sample were vortexed well and then centrifuged at 3500 rpm at 15° C. for 20 min. 110 μL of supernatant was mixed with 110 μL of water and quantitated by LC-MS/MS workstation (Shimazu Corp.).

[2] = molecular target: PIM1 (Homo sapiens, UniProt P11309); assay: Kinase selectivity IC50, PIM1; assay type: biochemical
Experimental: To investigate the representative kinase selectivity of these compounds at physiological ATP levels, compound 13 was screened over a panel of 121 kinases in the presence of 1 mM ATP with preincubation method. […] IC50 values of hit kinases were determined to confirm the selectivity of compound 13.

[3] = test system: phospho-H2AX (γ-H2AX); assay: Western blotting of phospho-H2AX in Colo-205 cells; assay type: cell-based, human; conditions: 48 h
Experimental: (§2) FIGS. 3A and 3B illustrate the effects of Cdc7 inhibition by compound 13 in Colo-205 cells. a) Western blot analysis of extracts prepared from Colo-205 cells at 48 h after treatment with DMSO control (0 μM) or compound 13 at indicated concentrations. b) […] analysis of Colo-205 cells treated for 48 h with DMSO control (0 μM) and the indicated concentration of compound 13. DNA content was measured by FACS after propidium iodide staining.
(§3) Human colon adenocarcinoma cell line Colo-205 was obtained from American Type Culture Collection (ATCC, Manassas Va.). Cells were grown in RPMI1640 supplemented with 10% FBS and 1% penicillin/streptomycin at 37° C., 5% CO2 and 95% humidity. Antibodies against Phospho-Histone H2A.X (Ser139) (no. 2577), Cleaved PARP (Asp214) (no. 9541) and MCM2 (no. 3619) were obtained from Cell signaling Technology. […]
(§4) Cells were seeded in T75 flasks (cell density, 2.25×10^6 cells/13.5 mL) and then incubated at 37° C. overnight. […] After washing with cold D-PBS, cells were scraped and lysed using a lysis buffer [RIPA Buffer (×1) containing 1% Phosphatase inhibitor Cocktail 3, 1% Phosphatase inhibitor Cocktail, and 1 mM phenylmethylsulfonyl fluoride], and the obtained samples were analyzed by western blotting. […] Each band was detected by chemiluminescence using a CCD camera (ImageQuant LAS 500, GE healthcare Ltd.).

[4] = molecular target: T1, human Cdc7/human ASK complex protein (Homo sapiens, UniProt O00311); assay: Cdc7/ASK enzymatic assay; assay type: biochemical
T1 construct: purchased Carna Biosciences, Inc
Experimental: Measurement of Cdc7 kinase activity was carried out using MSA assay kit (QuickScout™ Screening Assist Kit, Carna Biosciences, Inc.). Assay buffer (20 mM HEPES, 0.01% Triton X-100™, 2 mM dithiothreitol, pH 7.5) was used to prepare a substrate mixture solution comprising 4 μM of kinase-reaction substrate (FITC-labeled MCM2 peptide), 40 mM MgCl2, and 4 times concentrations of final targeted ATP (5, 100, and 1,000 μM). The enzyme supplied in the kit (human Cdc7/human ASK complex protein) was diluted into the assay buffer to prepare a 7 nM solution (enzyme solution). The compound stock solution was prepared by diluting a 10 mM DMSO solution into the assay buffer (final 4% DMSO). The kinase reaction was performed by mixing of 5 μL of the compound solution, 5 μL of the substrate mixture solution, and 10 μL of the enzyme solution in a 384-well plate. For the pre-incubation assay, the compound solution and the enzyme solution were pre-mixed and incubated at ambient temperature for 30 min before adding into the substrate mixture solution to start enzymatic reaction. After the reaction at 25° C. for 5 hours, 60 μL of the termination buffer (supplied in the kit) was added to stop the reaction. The phosphorylation of substrate was measured using a LabChip EZ Reader II system (Caliper Life Sciences). The percent inhibition (%) by a tested compound was calculated according to the following formula:
Percent inhibition (%)=(1−(C−A)/(B−A))×100
A represents P/(P+S) for a blank well, B represents P/(P+S) for a solvent well, and C represents P/(P+S) for a compound-added well. S: the peak heights of the separated substrate, P: phosphorylated substrate.
The IC50 value of tested compound was calculated by regression analysis of the percent inhibition values versus the (logarithmic) concentration of the tested compound.

[5] = In vitro metabolic stability, human liver microsomes; assay type: in vitro ADME
Experimental: as §1

[6] = test system: phosphorylation at Ser53 of MCM2; assay: Western blotting of MCM2 phosphorylation in Colo-205 cells; assay type: cell-based, human; conditions: 48 h, even at 0.1 μM
Experimental: as §2, §3, §4

[7] = test system: HEL299; assay: Anti-proliferation activity in HEL299; assay type: cell-based; conditions: HEL 299; HEL299, derived from a human embryo lung tissue

MLM % (remaining % of parent compound) ([1]; 30 min treatment of mouse liver microsomes): 58% | metabolic stability in mice (in words) ([1]; mouse): improved metabolic stabilities | IC50 ([2]; 1 mM ATP with preincubation, mean of duplicated assays): 77 nM | Fold selectivity, PIM1 ([2]; IC50 versus Cdc7): 129 fold | IC50 ([4]; 5 μM ATP, mean of duplicated assays, read-out: Cdc7 IC50): 2.4 nM | Fold selectivity, Cdc7 ([4]; IC50 for each kinase versus Cdc7): 1.0 fold | IC50 ([4]; in the presence of 1 mM ATP, without pre-incubation, read-out: Cdc7 IC50): 191 nM | IC50 ([4]; kinase selectivity table, 1 mM ATP with preincubation, mean of duplicated assays, read-out: IC50 (nM), Cdc7): 0.6 nM | HLM % (remaining % of parent compound) ([5]; 30 min treatment of human liver microsomes): 67% | metabolic stability in human liver microsome (in words) ([5]; human): improved metabolic stabilities
Compound: CCOC(=O)C1=C(Nc2ccccc2Cl)OC(=Cc2c[nH]c3ncccc23)C1=O [Compound 13, Ethyl 5-((1H-pyrrolo[2,3-b]pyridin-3-yl)methylene)-2-((2-chlorophenyl)amino)-4-oxo-4,5-dihydrofuran-3-carboxylate]
DNA double strand breaks (phospho-H2AX, γ-H2AX) [3]: DNA strand breakages were observed | pre-incubation effect on Cdc7 inhibition ([4]; 30 min pre-incubation with Cdc7, various ATP concentrations up to 1 mM): inhibitory potencies were sustained even in the presence of 1 mM ATP | ATP competition assay: effect of ATP concentration on inhibitory potency ([4]; various ATP concentrations, without pre-incubation): ATP-dependent proportional decreases in inhibitory potencies | inhibition of phosphorylation at Ser53 of MCM2 [6]: potently inhibited | IC50 [7]: 1200 nM
